# Test results taken from patent publication US20080176810A1, “Use of 3, 4', 5-Trihydroxy-Stilbene-3-Beta-D-glucoside in Prepartion of Medicines For Treating and/or Preventing Ischemic Heart Disease” (SHENZHEN NEPTUNUS PHARMACEUTICAL CO., LTD., priority 2004, published 2008).
# Several values for one entry are separate records, joined by “and”; a condition that tells them apart may be missing. Identical values can stand only once. Entries after “also recorded” stand apart in the source; their conditions may differ.
# How the values were obtained:
# [1] = system: ischemic reperfusion injury of myocardium; test: Ischemic reperfusion injury of myocardium in rats, iv; type: in vivo, SD rats; settings: for CK / LDH: serum
# Experimental: Administration was performed by femoral intravenous injection.
# (1) Method of operation and ligation of coronary artery: Male SD rats were anesthetized with pentobarbital sodium (45 mg/kg) and immobilized on their backs for records of II lead ECG with an electrocardiograph (ECG-6851C, manufactured by Shanghai Photoelectrical Medical Electronic Apparatus Co., Ltd.). Tracheas were intubated and connected to a breathing apparatus. Thoracotomy was performed at intercostal space on left chest for cutting down fourth/fifth rib and opening cardiac pericardium to expose the heart. A 0/3 suture line was passed underneath the left branch of anterior descending coronary artery. After 10 minutes of stabilization (those with abnormal ECG after stabilization were abandoned). With two thrums passing through a small piece of fine silicone tube, a ligature was made on another small piece of fine silicone tube for ischemic ligation (those with no changes in ST segment and T-wave were excluded). After 10 minutes of ligation, drugs were injected slowly through femoral veins. 40 minutes later, the lines for ligation were cut off to reperfuse the anterior descending branch for 30 minutes.
# (2) Detection of lactate dehydrogenase (LDH) and creatine kinase (CK): After completion of reperfusion, blood was sampled from abdominal aorta to determine serum activity of LDH and CK with ultraviolet spectrometry.
# (3) Measurement of the area of myocardial infarction: With same thickness, 5 slices of ventricular myocardium were cut off from the part under the line of coronary ligation and in parallel to atrioventricular furrow and put into staining solution of nitroblue tetrazolium (N-BT) for 15 min of shaking dyeing. Normal myocardium would be dyed to lasureous color, while the infarct part of myocardium would not be dyed and remain pale-yellow. Under a microscopy, the infarct part was separated and weighed, and the percentage (%) of the weight of infarct part to the weight of total myocardium was adopted as the index for area of myocardial infarction.
# (4) Data and statistic treatment: Data in all groups were presented with x±s and analysis of variance was adopted to check their significance.
# [2] = system: acute myocardial infarction; test: Acute myocardial infarction in anesthetized dogs, oral (intragastric) administration; type: in vivo; settings: for weight of infarct myocardium: N-BT staining; for Weight of IM/Weight of LH: in % (unit assumed); for LDH: serum, 180 min; for ΔST: surface ECG, by row: r6 before, r7-r12 5,15,30,60,90,120 min after administration
# Experimental: Drugs were administered intragastrically in equal volume at unequal concentration. […] After weighing, animals were anesthetized with 3% pentobarbital sodium iv at the dose of 30 mg/kg. Tracheal intubation was performed and anesthesia respirator (SC-M5, manufactured by Shanghai Medical Instrument Factory) was connected for mechanical ventilation (18 20 per min with tidal volume of 350 550 ml) after thoracotomy. Needle electrodes were punctured into four limbs and under chest skin for monitoring standard limb lead and V3 and ECG. Thoracotomy was performed at the third intercostal space of left sternal border and the fourth rib was removed for full exposure of heart. The pericardium was cut open to make a pericardium hammock. The coronary artery was dissociated from between the second and third branches of left anterior descending coronary artery, underneath which pass through silk threads for two-step ligation. On surface of heart were placed 30-point epicardial leads, to which four limbs were connected through needle-electrodes, which were in turn connected to Powerlab/8s (AD Instruments) with a multichannel switcher to record epicardial electrogram. Animal models of acute myocardial ischemia were prepared with the method of two-step ligation. […] NBT). While other part of myocardium was dyed to blue-black, the Infarct myocardium would not be colorated, which was then cut off and weighted. The results of experiment were shown in x±s and statistics were checked with t-test of non-matched pair. When p<0.05, it was judged that the differences were statistically significant.
# [3] = system: vascular smooth muscle; settings: 0.02 mM~2 mM; cited from earlier work
# [4] = Pharmacokinetics of single-dose iv in Beagle dogs; settings: for maximum plasma drug concentration: dogs;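 for all read-outs here: plasma levels in healthy adult Beagle dogs, five per dose group, after slow forelimb iv injection over 5 min, parameters from non-compartmental statistical moment analysis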
# Experimental: Pharmacokinetical studies were carried out in three groups at the doses of 10 mg/Kg, 20 mg/Kg and 30 mg/Kg. Five healthy adult Beagle dogs were chosen into each dose group. […] The intravenous injection was performed in one forelimb of each tested dog within 5 min in a very slow manner. Three hours after the intravenous injection, the dogs could be fed. 3 ml of venous blood was sampled in heparinized tubes from another forelimb of each tested dog before and 0, 5, 10, 20, 40, 60, 90, 120, 180, 240, 300, 360 and 480 min after administration. Blood samples were centrifuged to obtain 1 ml of plasma.
# Non compartmental modeling method (statistical moment) was applied in the data analysis. Estimating formula of corresponding parameters is as follows:
# AUC0˜τ=Σ(Ci+Ci−1)×(ti−ti−1)/2
# AUC0˜∞=Σ(Ci+Ci−1)×(ti−ti−1)/2+Cn/λ
# AUMC0˜∞=Σ(Citi+Ci−1ti−1)×(ti−ti−1)/2+Cn(1/λ^2+tn/λ)
# Where, in the formula, λ indicates the number of terminal eliminating rate of the concentration-time curve. tn and Cn represent the latest time of blood-sampling and plasma drug concentration, respectively. Pharmacokinetical parameters such as tmax and Cmax take the corresponding measuring value of plasma samples.
# These pharmacokinetic parameters are obtained with non compartmental modeling method.
# [5] = Beagle dogs, single dose iv, 10 mg/Kg, non compartmental
# [6] = Beagle dogs, single dose iv, 20 mg/Kg, non compartmental
# [7] = Beagle dogs, single dose iv, 30 mg/Kg, non compartmental
substance,measurement,setting,value
"3,4′,5-trihydroxy-stilbene-3-β-D-glucoside [TSG]",Infarct area percentage,[1]; high dose 30.0 mg/kg iv,23.71 ± 3.66 %
same,CK,[1]; high dose 30.0 mg/kg iv,559.4 ± 72.9 IU/L
same,LDH,[1]; high dose 30.0 mg/kg iv,744.0 ± 149.2 IU/L
same,Infarct area percentage,[1]; low dose 7.5 mg/kg iv,27.57 ± 5.33 %
same,CK,[1]; low dose 7.5 mg/kg iv,710.7 ± 106.8 IU/L
same,LDH,[1]; low dose 7.5 mg/kg iv,857.7 ± 124.0 IU/L
same,Infarct area percentage,[1]; middle dose 15.0 mg/kg iv,24.80 ± 3.32 %
same,CK,[1]; middle dose 15.0 mg/kg iv,630.6 ± 108.6 IU/L
same,LDH,[1]; middle dose 15.0 mg/kg iv,809.4 ± 128.4 IU/L
same,weight of infarct myocardium,[2]; TSG 5 mg/kg oral,5.98 ± 1.71 g
same,Weight of IM/Weight of LH,[2]; TSG 5 mg/kg oral,10.8 ± 2.81
same,LDH,[2]; TSG 5 mg/kg oral,159 ± 80.4 IU/L
same,ΔST,"[2]; TSG 5 mg/kg oral, 5 min after administration",0.70 ± 0.50 mV
same,ΔST,"[2]; TSG 5 mg/kg oral, 15 min after administration",0.71 ± 0.48 mV
same,ΔST,"[2]; TSG 5 mg/kg oral, 30 min after administration",0.73 ± 0.51 mV
same,ΔST,"[2]; TSG 5 mg/kg oral, 60 min",0.88 ± 0.54 mV
same,ΔST,"[2]; TSG 5 mg/kg oral, 90 min after administration",0.82 ± 0.49 mV
same,ΔST,"[2]; TSG 5 mg/kg oral, 120 min after administration",0.86 ± 0.52 mV
same,ΔST,"[2]; TSG 5 mg/kg oral, Before administration",0.66 ± 0.45 mV
same,weight of infarct myocardium,[2]; TSG 10 mg/kg oral,3.17 ± 0.66 g
same,Weight of IM/Weight of LH,[2]; TSG 10 mg/kg oral,6.61 ± 1.31
same,LDH,[2]; TSG 10 mg/kg oral,140 IU/L
same,ΔST,"[2]; TSG 10 mg/kg oral, 5 min after administration",0.68 ± 0.51 mV
same,ΔST,"[2]; TSG 10 mg/kg oral, 15 min after administration",0.69 ± 0.52 mV
same,ΔST,"[2]; TSG 10 mg/kg oral, 30 min after administration",0.69 ± 0.45 mV
same,ΔST,"[2]; TSG 10 mg/kg oral, 60 min",0.70 ± 0.44 mV
same,ΔST,"[2]; TSG 10 mg/kg oral, 90 min after administration",0.75 ± 0.46 mV
same,ΔST,"[2]; TSG 10 mg/kg oral, 120 min after administration",0.81 ± 0.52 mV
same,ΔST,"[2]; TSG 10 mg/kg oral, Before administration",0.55 ± 0.40 mV
same,weight of infarct myocardium,[2]; TSG 20 mg/kg oral,2.31 ± 0.70 g
same,Weight of IM/Weight of LH,[2]; TSG 20 mg/kg oral,4.03 ± 0.61
same,LDH,[2]; TSG 20 mg/kg oral,120 IU/L
same,intracellular calcium concentration in vascular smooth muscle,[3],increase intracellular calcium concentration in vascular smooth muscle remarkably
same,AUC0~∞,[4]; 10 mg/kg iv,315.42 ± 60.82 µg·min/mL and 315 µg·min/mL
same,terminal elimination half life (t1/2),[4]; 10 mg/kg iv,2.7978 ± 2.8483 h and 2.8 h
same,AUC0~∞,[4]; 20 mg/kg iv,745.75 ± 175.84 µg·min/mL and 745 µg·min/mL
same,terminal elimination half life (t1/2),[4]; 20 mg/kg iv,2.5175 ± 0.9553 h and 2.53 h
same,AUC0~∞,[4]; 30 mg/kg iv,1552.71 ± 227.28 µg·min/mL and 1552 µg·min/mL
same,terminal elimination half life (t1/2),[4]; 30 mg/kg iv,6.2182 ± 6.2163 h and 6.22 h
same,maximum plasma drug concentration,[4]; 30 mg/kg iv,100 µg/mL
same,maximum plasma drug concentration,"[4]; 30 mg/kg iv, listed as 3,4′,5-trihydroxy-stilbene-3-β-D-glucoside",about 100 μg/ml; also recorded: approximately 0.25 mM
same,AUC0~480,[4]; [5],283.05 ± 49.85 µg·min/mL
same,AUC0~∞,[4]; [5],315.42 ± 60.82 µg·min/mL
same,CI,[4]; [5],0.03 ± 0.01 L/min
same,MRT,[4]; [5],2.3343 ± 2.0812 h
same,Vss,[4]; [5],4.21 ± 3.06 L
same,t1/2,[4]; [5],2.7978 ± 2.8483 h
same,AUC0~480,[4]; [6],718.32 ± 179.10 µg·min/mL
same,AUC0~∞,[4]; [6],745.75 ± 175.84 µg·min/mL
same,CI,[4]; [6],0.03 ± 0.01 L/min
same,MRT,[4]; [6],1.301 ± 0.204 h
same,Vss,[4]; [6],2.24 ± 0.78 L
same,t1/2,[4]; [6],2.5175 ± 0.9553 h
same,AUC0~480,[4]; [7],1432.17 ± 349.97 µg·min/mL
same,AUC0~∞,[4]; [7],1552.71 ± 227.28 µg·min/mL
same,CI,[4]; [7],0.02 ± 0.00 L/min
same,MRT,[4]; [7],3.068 ± 4.0013 h
same,Vss,[4]; [7],4.25 ± 6.35 L
same,t1/2,[4]; [7],6.2182 ± 6.2163 h
